Results from US12435080B2, “sGC stimulators” (Tisento Therapeutics Inc., priority 2016, dated 2025).

Molecular target: T1, sGC enzyme (Homo sapiens, UniProt Q02108+Q02153)
T1 construct: incorporated into these cells detect cGMP formed by the compounds stimulating the sGC enzyme; host or cells: HEK293 cells stably expressing GloSensor 40F cGMP biosensor
T1 sequence (Q02153 1-619): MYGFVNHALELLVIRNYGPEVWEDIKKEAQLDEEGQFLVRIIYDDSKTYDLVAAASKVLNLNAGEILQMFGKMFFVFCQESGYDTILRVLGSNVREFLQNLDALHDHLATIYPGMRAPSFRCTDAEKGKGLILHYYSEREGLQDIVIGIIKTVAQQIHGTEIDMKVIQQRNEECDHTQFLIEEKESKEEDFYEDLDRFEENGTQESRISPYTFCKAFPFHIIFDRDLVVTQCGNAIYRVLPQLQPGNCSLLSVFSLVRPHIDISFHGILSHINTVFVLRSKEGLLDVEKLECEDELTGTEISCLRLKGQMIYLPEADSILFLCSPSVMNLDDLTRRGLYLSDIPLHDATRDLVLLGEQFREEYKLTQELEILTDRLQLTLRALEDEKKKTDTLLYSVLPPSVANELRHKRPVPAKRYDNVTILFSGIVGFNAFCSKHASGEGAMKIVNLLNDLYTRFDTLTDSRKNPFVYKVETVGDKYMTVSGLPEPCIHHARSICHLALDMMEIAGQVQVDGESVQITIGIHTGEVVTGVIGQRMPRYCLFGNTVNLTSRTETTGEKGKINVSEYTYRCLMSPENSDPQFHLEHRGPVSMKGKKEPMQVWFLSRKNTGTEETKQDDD
T1 sequence (Q02108 1-690): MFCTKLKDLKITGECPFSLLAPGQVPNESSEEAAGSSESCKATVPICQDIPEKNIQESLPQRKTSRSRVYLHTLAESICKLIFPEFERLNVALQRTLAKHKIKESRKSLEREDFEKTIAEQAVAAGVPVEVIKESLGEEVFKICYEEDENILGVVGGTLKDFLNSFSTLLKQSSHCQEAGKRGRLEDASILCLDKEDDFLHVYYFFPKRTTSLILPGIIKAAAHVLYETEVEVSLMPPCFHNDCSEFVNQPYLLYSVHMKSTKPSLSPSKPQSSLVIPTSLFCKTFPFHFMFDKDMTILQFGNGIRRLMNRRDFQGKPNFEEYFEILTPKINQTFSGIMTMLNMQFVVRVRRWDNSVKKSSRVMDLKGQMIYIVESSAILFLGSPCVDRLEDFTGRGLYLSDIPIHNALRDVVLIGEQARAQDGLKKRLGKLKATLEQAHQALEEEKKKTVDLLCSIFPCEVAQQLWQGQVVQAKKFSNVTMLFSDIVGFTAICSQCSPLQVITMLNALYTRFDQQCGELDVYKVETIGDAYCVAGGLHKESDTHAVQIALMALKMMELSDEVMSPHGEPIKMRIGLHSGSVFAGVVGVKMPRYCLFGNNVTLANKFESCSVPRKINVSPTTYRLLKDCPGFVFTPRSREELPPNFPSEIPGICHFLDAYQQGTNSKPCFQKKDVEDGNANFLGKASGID
Assay: cGMP GloSensor cell-based assay, 384-well format
Conditions: Glo-sensor AbsEC50, HEK293 cells expressing GloSensor 40F cGMP; 10 μM DETA-NONOate; normalized to 30 μM Compound Y; compounds in Table IA
Text: Human embryonic kidney cells (HEK293) cells expressing GloSensor™ 40F cGMP (Part No: CS182801, Promega) were used to evaluate the activity of test compounds. The luminescent biosensors (engineered luciferase) that were incorporated into these cells detect cGMP formed by the compounds stimulating the sGC enzyme and emit luminescence.
cGMP GloSensor cells were maintained in Dulbecco's Modification of Eagle's Medium (DMEM) supplemented with fetal bovine serum (FBS, 10% final) and hygromycine (200 ug/ml). […] Cells were incubated overnight at 37° C. in a humidified chamber with 5% CO2. The next day, medium was removed and cells were replaced with 40 ul/well of GloSensor™, 2 mM (Promega Cat No E1291). Cells were treated for 90 minutes at 25° C. to allow the substrate to equilibrate in the cells. […] For endpoint SAR screening, data were collected after 55 min incubation at room temperature.
Data were fit using a 4-parameter fit (log(agonist) vs. response—variable slope) using GraphPad Prism Software v.5. n=2 for all compounds. […] Compounds failing to elicit a minimum response of 50% are reported as >30 μM or ND.

Compound | EC50 [nM]
Fc1ccccc1Cn1nc(-c2ncn[nH]2)c2cccnc21 [Compound I-25] | 100 to 1000

Same assay, conditions: HEK293 cells expressing GloSensor 40F cGMP; 10 μM DETA-NONOate; normalized to 30 μM Compound Y; compounds in Table IA; read-out: Glo-sensor AbsEC50

EC50 [nM] | Compound
100 to 1000 | Fc1cccnc1Cn1nc(-c2nc(C(F)(F)F)n[nH]2)c2cccnc21 [Compound I-13, 1-((3-Fluoropyridin-2-yl)methyl)-3-(3-(trifluoromethyl)-1H-1,2,4-triazol-5-yl)-1H-pyrazolo[3,4-b]pyridine]
< 100 | FC(F)(F)c1n[nH]c(-c2nn(Cc3cncnc3)c3cc(Cl)ccc23)n1 [Compound I-16, 6-Chloro-1-(pyrimidin-5-ylmethyl)-3-(3-(trifluoromethyl)-1H-1,2,4-triazol-5-yl)-1H-indazole]
> 1000 | FC(F)(F)c1n[nH]c(-c2nn(CC(F)(F)C(F)(F)F)c3ncccc23)n1 [Compound I-19, 1-(2,2,3,3,3-Pentafluoropropyl)-3-(3-(trifluoromethyl)-1H-1,2,4-triazol-5-yl)-1H-pyrazolo[3,4-b]pyridine]
< 100 | Cc1ncc(Cn2nc(-c3nc(C(F)(F)F)n[nH]3)c3ccc(Cl)cc32)cn1 [Compound I-22, 6-Chloro-1-((2-methylpyrimidin-5-yl)methyl)-3-(3-(trifluoromethyl)-1H-1,2,4-triazol-5-yl)-1H-indazole]
> 1000 | Fc1ccccc1Cn1nc(-c2nc(C(F)(F)F)n[nH]2)c2ncccc21 [Compound I-35, 1-(2-Fluorobenzyl)-3-(3-(trifluoromethyl)-1H-1,2,4-triazol-5-yl)-1H-pyrazolo[4,3-b]pyridine]
< 100 | CC(C)(C)c1n[nH]c(-c2nn(Cc3ccccc3F)c3ncccc23)n1 [Compound I-37, 3-(3-(tert-Butyl)-1H-1,2,4-triazol-5-yl)-1-(2-fluorobenzyl)-1H-pyrazolo[3,4-b]pyridine]
100 to 1000 | NC(=O)c1n[nH]c(-c2nn(Cc3ccccc3F)c3ncccc23)n1 [Compound I-40, 5-(1-(2-fluorobenzyl)-1H-pyrazolo[3,4-b]pyridin-3-yl)-1H-1,2,4-triazole-3-carboxamide]

Further lines, the compound ahead of its results:

Compound | EC50 [nM]
FC(F)(F)c1n[nH]c(-c2nn(CCC(F)(F)C(F)(F)F)c3cc(Cl)ccc23)n1 [Compound I-3, 6-chloro-1-(3,3,4,4,4-pentafluorobutyl)-3-(3-(trifluoromethyl)-1H-1,2,4-triazol-5-yl)-1H-indazole] | 100 to 1000
FC(F)(F)CCn1nc(-c2nc(C(F)(F)F)n[nH]2)c2cccnc21 [Compound I-7, 3-(3-(Trifluoromethyl)-1H-1,2,4-triazol-5-yl)-1-(3,3,3-trifluoropropyl)-1H-pyrazolo[3,4-b]pyridine] | > 1000
Fc1ccc(F)c(Cn2nc(-c3nc(C(F)(F)F)n[nH]3)c3cccnc32)c1 [Compound I-14, 1-(2,5-Difluorobenzyl)-3-(3-(trifluoromethyl)-1H-1,2,4-triazol-5-yl)-1H-pyrazolo[3,4-b]pyridine] | < 100
Fc1ccccc1Cn1nc(-c2nc(CC(F)(F)F)n[nH]2)c2cccnc21 [Compound I-26, 1-(2-Fluorobenzyl)-3-(3-(2,2,2-trifluoroethyl)-1H-1,2,4-triazol-5-yl)-1H-pyrazolo[3,4-b]pyridine] | < 100
Fc1ccccc1Cn1nc(-c2nc(C(F)(F)F)n[nH]2)c2ccncc21 [Compound I-32] | 100 to 1000
CC(F)(F)c1n[nH]c(-c2nn(Cc3ccccc3F)c3ncccc23)n1 [Compound I-36, 3-(3-(1,1-difluoroethyl)-1H-1,2,4-triazol-5-yl)-1-(2-fluorobenzyl)-1H-pyrazolo[3,4-b]pyridine] | < 100
Cc1ncc(Cn2nc(-c3nc(C(F)(F)F)n[nH]3)c3ncccc32)cn1 [Compound I-38] | > 1000
Fc1ccccc1Cn1nc(-c2nc(-c3ccccc3)n[nH]2)c2cccnc21 [Compound I-39] | > 1000
Fc1cccc(F)c1Cn1nc(-c2nc(C(F)(F)F)n[nH]2)c2cccnc21 [Compound I-42] | < 100
Fc1ccccc1Cn1nc(-c2nc(C(F)(F)F)n[nH]2)c2cnccc21 [Compound I-43, 1-(2-Fluorobenzyl)-3-(3-(trifluoromethyl)-1H-1,2,4-triazol-5-yl)-1H-pyrazolo[4,3-c]pyridine] | > 1000
Fc1n[nH]c(-c2nn(Cc3ccccc3F)c3ncccc23)n1 [Compound I-45, 3-(3-fluoro-1H-1,2,4-triazol-5-yl)-1-(2-fluorobenzyl)-1H-pyrazolo[3,4-b]pyridine] | 100 to 1000

Same assay, conditions: HEK293 cells expressing GloSensor 40F cGMP; 10 μM DETA-NONOate; normalized to 30 μM Compound Y; compounds in Table IB; read-out: Glo-sensor Abs EC50

EC50 [nM] | Compound
> 1000 | Cc1ncc(Cc2nc(-c3nc(C(F)(F)F)n[nH]3)n3cc(Cl)ccc23)cn1 [Compound I-34, 6-Chloro-1-((2-methylpyrimidin-5-yl)methyl)-3-(3-(trifluoromethyl)-1H-1,2,4-triazol-5-yl)imidazo[1,5-a]pyridine]
> 1000 | Fc1ccccc1Cc1nc(-c2nc(C(F)(F)F)n[nH]2)n2ccncc12 [Compound I-44, 1-(2-Fluorobenzyl)-3-(3-(trifluoromethyl)-1H-1,2,4-triazol-5-yl)imidazo[1,5-a]pyrazine]

The remaining lines, values behind:

Compound | EC50 [nM]
Fc1cccn2c(-c3nc(C(F)(F)F)n[nH]3)nc(Cc3cncnc3)c12 [Compound I-15, 8-Fluoro-1-(pyrimidin-5-ylmethyl)-3-(3-(trifluoromethyl)-1H-1,2,4-triazol-5-yl)imidazo[1,5-a]pyridine] | < 100
FC(F)(F)c1n[nH]c(-c2nc(Cc3cncnc3)c3ncccn23)n1 [Compound I-17] | < 100
FC(F)(F)c1n[nH]c(-c2nc(CCC(F)(F)C(F)(F)F)n3ncccc23)n1 [Compound I-18, 7-(3,3,4,4,4-pentafluorobutyl)-5-(3-(trifluoromethyl)-1H-1,2,4-triazol-5-yl)imidazo[1,5-b]pyridazine] | 100 to 1000
Cc1ncc(Cc2nc(-c3nc(C(F)(F)F)n[nH]3)n3cc(F)ccc23)cn1 [Compound I-23, 6-Fluoro-1-((2-methylpyrimidin-5-yl)methyl)-3-(3-(trifluoromethyl)-1H-1,2,4-triazol-5-yl)imidazo[1,5-a]pyridine pyridine] | 100 to 1000
Fc1ccccc1Cc1nc(-c2nc(C(F)(F)F)n[nH]2)n2ncccc12 [Compound I-24, 5-(2-Fluorobenzyl)-7-(3-(trifluoromethyl)-1H-1,2,4-triazol-5-yl)imidazo[1,5-b]pyridazine] | > 1000
Cc1ncc(Cc2nc(-c3nc(C(F)(F)F)n[nH]3)n3cc(Cl)cc(F)c23)cn1 [Compound I-27, 6-Chloro-8-fluoro-1-((2-methylpyrimidin-5-yl)methyl)-3-(3-(trifluoromethyl)-1H-1,2,4-triazol-5-yl)imidazo[1,5-a]pyridine] | > 1000
Fc1cc(F)c2c(Cc3cncnc3)nc(-c3nc(C(F)(F)F)n[nH]3)n2c1 [Compound I-28, 6,8-Difluoro-1-(pyrimidin-5-ylmethyl)-3-(3-(trifluoromethyl)-1H-1,2,4-triazol-5-yl)imidazo[1,5-a]pyridine] | < 100
Cc1ncc(Cc2nc(-c3nc(C(F)(F)F)n[nH]3)n3ccc(Cl)cc23)cn1 [Compound I-29, 7-Chloro-1-((2-methylpyrimidin-5-yl)methyl)-3-(3-(trifluoromethyl)-1H-1,2,4-triazol-5-yl)imidazo[1,5-a]pyridine] | 100 to 1000
